Values of other authors as cited in patent publication US20250231185A1, “Coronavirus T Cell Epitopes, Megapools and Uses Thereof” (La Jolla Institute for Immunology, priority 2021, published 2025).
Like-named read-outs stand apart in the source and are kept apart here.

Test system: CD8+ T cells
Conditions: cited from earlier work
[1] = CD8RE megapool peptides (non-spike SARS-CoV-2 antigens), dominant epitope Yes/No
[2] = T cell subset (CD4 or CD8) recognizing the SARS-CoV-2-derived epitope
[3] = SARS-CoV-2-derived CD8 epitopes, dominant = recognized by 3 or more donors/different studies
[4] = SARS-CoV-2 Ag S, T cell type recognizing the epitope
[5] = CD8R (D) megapool epitopes, dominant = recognized by 3 or more donors/different studies
[6] = T cell type (CD4 or CD8) recognizing the SARS-CoV-2 epitope

For 2901 (SLVKPSFYV) [compound 2901], the Dominant [1] is given as “Yes (more dominant epitopes are defined by being recognized by 3 or more donors/different studies)”.

For 591 (VELGTEVNEF) [compound 591], the Restriction [2] is listed as “CD8”.

For 646 (TSNPTTFHL) [compound 646], the Restriction [2] is listed as “CD8”.

In the case of 2983 (MMISAGFSL) [compound 2983], the Dominant [1] is given as “Yes (more dominant epitopes are defined by being recognized by 3 or more donors/different studies)”.

For 584 (FGDDTVIEV) [compound 584], the Dominant [3] is listed as “Yes (more dominant epitopes are defined by being recognized by 3 or more donors/different studies)” and the Restriction [2] is listed as “CD8”.

For 1339 (RVYSTGSNVF) [compound 1339], the Restriction [4] is listed as “CD8”.

For 1749 (KQFDTYNLW) [compound 1749], the Dominant [5] is given as “Yes (more dominant epitopes are defined by being recognized by 3 or more donors/different studies)”.

For 2993 (KTIQPRVEK) [compound 2993], the Dominant [1] is listed as “Yes (more dominant epitopes are defined by being recognized by 3 or more donors/different studies)”.

For 1346 (QTNSPRRAR) [compound 1346], the Restriction [4] is given as “CD8”.

For 1670 (FLFLTWICL) [compound 1670], the Dominant [5] is given as “Yes (more dominant epitopes are defined by being recognized by 3 or more donors/different studies)”.

In the case of 947 (FPPTSFGPL) [compound 947], the Restriction [6] is listed as “CD8”.

In the case of 3053 (LEYHDVRVVL) [compound 3053], the Dominant [1] is listed as “Yes (more dominant epitopes are defined by being recognized by 3 or more donors/different studies)”.

In the case of 606 (YLKLTDNVY) [compound 606], the Restriction [2] is given as “CD8”.

For 1816 (IQYIDIGNY) [compound 1816], the Dominant [5] is given as “Yes (more dominant epitopes are defined by being recognized by 3 or more donors/different studies)”.

For 1376 (IYKTPPIKDF) [compound 1376], the Restriction [4] is given as “CD8”.

For 3040 (YLYALVYFL) [compound 3040], the Dominant [1] is listed as “Yes (more dominant epitopes are defined by being recognized by 3 or more donors/different studies)”.

In the case of 2927 (NPANNAAIVL) [compound 2927], the Dominant [1] is given as “Yes (more dominant epitopes are defined by being recognized by 3 or more donors/different studies)”.

For 3008 (FLPRVFSAV) [compound 3008], the Dominant [1] is listed as “Yes (more dominant epitopes are defined by being recognized by 3 or more donors/different studies)”.

For 984 (MLRIMASL) [compound 984], the Restriction [6] is given as “CD8”.

For 1301 (VGGNYNYLY) [compound 1301], the Restriction [4] is listed as “CD8”.

For 1780 (FLNGSCGSV) [compound 1780], the Dominant [5] is listed as “Yes (more dominant epitopes are defined by being recognized by 3 or more donors/different studies)”.

For 562 (VPHVGEIPV) [compound 562], the Restriction [2] is listed as “CD8”.

For 1018 (TPHTVLQAV) [compound 1018], the Restriction [6] is given as “CD8”.

For 1739 (IVDTVSALV) [compound 1739], the Dominant [5] is given as “Yes (more dominant epitopes are defined by being recognized by 3 or more donors/different studies)”.

For 514 (VLQLPQGTTL) [compound 514], the Dominant [3] is listed as “Yes (more dominant epitopes are defined by being recognized by 3 or more donors/different studies)” and the Restriction [2] is listed as “CD8”.

In the case of 1782 (VLAWLYAAV) [compound 1782], the Dominant [5] is given as “Yes (more dominant epitopes are defined by being recognized by 3 or more donors/different studies)”.

In the case of 582 (GETLPTEVL) [compound 582], the Restriction [2] is listed as “CD8”.

For 1378 (SFIEDLLF) [compound 1378], the Restriction [4] is listed as “CD8”.

In the case of 2925 (GTGPEAGLPY) [compound 2925], the Dominant [1] is listed as “Yes (more dominant epitopes are defined by being recognized by 3 or more donors/different studies)”.

For 1308 (KPFERDISTEI) [compound 1308], the Restriction [4] is listed as “CD8”.

For 3030 (ALRANSAVK) [compound 3030], the Dominant [1] is given as “Yes (more dominant epitopes are defined by being recognized by 3 or more donors/different studies)”.

For 1443 (HWFVTQRNF) [compound 1443], the Restriction [4] is given as “CD8”.

In the case of 1666 (SLVKPSFYV) [compound 1666], the Dominant [5] is listed as “Yes (more dominant epitopes are defined by being recognized by 3 or more donors/different studies)”.

In the case of 1455 (SLIDLQEL) [compound 1455], the Restriction [4] is listed as “CD8”.

In the case of 3046 (QLRARSVSPK) [compound 3046], the Dominant [1] is given as “Yes (more dominant epitopes are defined by being recognized by 3 or more donors/different studies)”.

For 2980 (ALLADKFPV) [compound 2980], the Dominant [1] is given as “Yes (more dominant epitopes are defined by being recognized by 3 or more donors/different studies)”.

For 1374 (VFAQVKQIY) [compound 1374], the Restriction [4] is given as “CD8”.

In the case of 546 (KLDDKDPNF) [compound 546], the Restriction [2] is listed as “CD8”.

In the case of 550 (YKTFPPTEPK) [compound 550], the Restriction [2] is given as “CD8”.

In the case of 1764 (TTDPSFLGRY) [compound 1764], the Dominant [5] is listed as “Yes (more dominant epitopes are defined by being recognized by 3 or more donors/different studies)”.

In the case of 1746 (SYATHSDKF) [compound 1746], the Dominant [5] is given as “Yes (more dominant epitopes are defined by being recognized by 3 or more donors/different studies)”.

For 1734 (VVYRGTTTYK) [compound 1734], the Dominant [5] is listed as “Yes (more dominant epitopes are defined by being recognized by 3 or more donors/different studies)”.

For 605 (NSFSGYLKL) [compound 605], the Restriction [2] is given as “CD8”.

In the case of 603 (TIEVNSFSGY) [compound 603], the Restriction [2] is given as “CD8”.

In the case of 1299 (DSKVGGNYNY) [compound 1299], the Restriction [4] is listed as “CD8”.

In the case of 556 (AADLDDFSKQL) [compound 556], the Restriction [2] is listed as “CD8”.

In the case of 2951 (LLMPILTLT) [compound 2951], the Dominant [1] is given as “Yes (more dominant epitopes are defined by being recognized by 3 or more donors/different studies)”.

In the case of 1063 (SLYVNKHAF) [compound 1063], the Restriction [6] is given as “CD8”.

In the case of 668 (WKYPQVNGL) [compound 668], the Restriction [2] is given as “CD8”.

For 1043 (RPQIGVVREF) [compound 1043], the Restriction [6] is listed as “CD8”.

In the case of 1806 (VYFLQSINF) [compound 1806], the Dominant [5] is given as “Yes (more dominant epitopes are defined by being recognized by 3 or more donors/different studies)”.

For 663 (FLGRYMSAL) [compound 663], the Restriction [2] is given as “CD8”.

For 1787 (KLKDCVMYA) [compound 1787], the Dominant [5] is listed as “Yes (more dominant epitopes are defined by being recognized by 3 or more donors/different studies)”.

In the case of 521 (QQQQGQTVTK) [compound 521], the Dominant [3] is listed as “Yes (more dominant epitopes are defined by being recognized by 3 or more donors/different studies)” and the Restriction [2] is listed as “CD8”.

For 1341 (STGSNVFQTR) [compound 1341], the Restriction [4] is listed as “CD8”.

For 1331 (TPCSFGGVSV) [compound 1331], the Restriction [4] is listed as “CD8”.

For 1753 (MLWCKDGHV) [compound 1753], the Dominant [5] is given as “Yes (more dominant epitopes are defined by being recognized by 3 or more donors/different studies)”.

In the case of 501 (LSPRWYFYYL) [compound 501], the Dominant [3] is listed as “Yes (more dominant epitopes are defined by being recognized by 3 or more donors/different studies)” and the Restriction [2] is listed as “CD8”.

In the case of 524 (RTATKAYNV) [compound 524], the Restriction [2] is given as “CD8”.

For 1682 (NTASWFTAL) [compound 1682], the Dominant [5] is given as “Yes (more dominant epitopes are defined by being recognized by 3 or more donors/different studies)”.

For 1809 (YYQLYSTQL) [compound 1809], the Dominant [5] is listed as “Yes (more dominant epitopes are defined by being recognized by 3 or more donors/different studies)”.

In the case of 996 (YAYLRKHF) [compound 996], the Restriction [6] is listed as “CD8”.

For 958 (AAISDYDYYR) [compound 958], the Restriction [6] is listed as “CD8”.
